# Laboratory results: patent publication US20240287080A1 (IDEAYA Biosciences Inc., priority 2021, published 2024)
# Biological target: T1, Pol theta (1-899) (Homo sapiens, UniProt O75417)
# T1 construct: Pol theta (1-899) (5 nM) in assay buffer
# Assay: Pol theta ATPase activity, NADH oxidation-coupled enzymatic assay (ATPase NADH coupling: Standard Screening: hPolQ)
# Assay type: biochemical
# Settings: Pol theta (1-899) 5 nM, NADH oxidation-coupled ATPase assay; compounds of Table 3
# Summary of the method: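 NADH-coupled ATPase readout: 5 nM Pol theta (1-899) preincubated 15 min with 10-point compound series in Tris pH 7.80, KCl, MgCl2, DTT, BSA, Tween, glycerol, then 100 μM ATP, 300 nM 50-mer poly-dT ssDNA, NADH, PEP, LDH and PK added (stock levels). A340 followed 60 min; slopes fit four-parameter for IC50.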
# T1 sequence (O75417 1-899): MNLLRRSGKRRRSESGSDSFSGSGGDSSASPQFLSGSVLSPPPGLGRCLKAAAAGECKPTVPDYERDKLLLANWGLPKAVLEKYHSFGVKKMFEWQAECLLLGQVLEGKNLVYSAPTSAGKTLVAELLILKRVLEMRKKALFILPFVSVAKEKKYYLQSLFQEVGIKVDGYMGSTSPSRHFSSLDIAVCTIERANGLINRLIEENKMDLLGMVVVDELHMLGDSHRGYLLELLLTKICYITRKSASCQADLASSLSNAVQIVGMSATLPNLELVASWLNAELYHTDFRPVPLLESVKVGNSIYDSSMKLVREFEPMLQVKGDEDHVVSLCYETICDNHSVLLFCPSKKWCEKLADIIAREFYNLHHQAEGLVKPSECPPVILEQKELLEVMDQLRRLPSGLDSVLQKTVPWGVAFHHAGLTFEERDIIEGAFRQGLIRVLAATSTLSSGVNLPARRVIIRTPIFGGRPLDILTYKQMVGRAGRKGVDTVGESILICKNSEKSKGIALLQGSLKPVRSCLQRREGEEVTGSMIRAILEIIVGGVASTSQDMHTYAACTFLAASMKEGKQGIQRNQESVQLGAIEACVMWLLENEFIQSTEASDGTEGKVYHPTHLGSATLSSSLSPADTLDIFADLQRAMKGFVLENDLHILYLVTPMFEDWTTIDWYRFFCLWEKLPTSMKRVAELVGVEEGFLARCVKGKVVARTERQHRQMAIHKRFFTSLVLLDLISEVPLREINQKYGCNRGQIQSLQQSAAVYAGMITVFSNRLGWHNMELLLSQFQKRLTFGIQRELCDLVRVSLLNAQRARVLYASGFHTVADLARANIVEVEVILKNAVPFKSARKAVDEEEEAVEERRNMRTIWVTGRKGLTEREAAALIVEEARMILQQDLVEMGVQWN
row,SMILES,IC50
1,"COc1nnc(NC(=O)c2cnc(C)cc2-c2cccc(N(C)C)c2)s1 [Example 412, 4-[3-(dimethylamino)phenyl]-N-(5-methoxy-1,3,4-thiadiazol-2-yl)-6-methylpyridine-3-carboxamide]",1 to 10 µM
2,"COc1nnc(NC(=O)c2cnc(C)cc2-c2cc(Cl)c([S+](C)[O-])cc2OC)s1 (single isomer, unassigned) [Example 277]",≤ 0.2 µM
3,"COc1cnc(Cl)cc1-c1cc(C)ncc1C(=O)Nc1nnc(O[C@@H]2CC[C@@]23CCOC3)s1 (racemic) [Example 295, rac-N-(5-(((1R,4S)-6-oxaspiro[3.4]octan-1-yl)oxy)-1,3,4-thiadiazol-2-yl)-2′-chloro-5′-methoxy-6-methyl-[4,4′-bipyridine]-3-carboxamide]",≤ 0.2 µM
4,"COc1nnc(NC(=O)c2cnc(C)cc2-c2cccc3c2ccn3C)s1 [Example 482, N-(5-methoxy-1,3,4-thiadiazol-2-yl)-6-methyl-4-(1-methyl-1H-indol-4-yl)pyridine-3-carboxamide]",1 to 10 µM
5,"COc1nnc(NC(=O)c2cnc(C)cc2-c2ccc3ncncc3c2)s1 [Example 470, N-(5-methoxy-1,3,4-thiadiazol-2-yl)-6-methyl-4-(quinazolin-6-yl)pyridine-3-carboxamide]",1 to 10 µM
6,"COc1nnc(NC(=O)c2cnc(C)cc2-c2ccc(P(C)(C)=O)cc2OC)s1 [Example 303, 4-(4-(dimethylphosphoryl)-2-methoxyphenyl)-N-(5-methoxy-1,3,4-thiadiazol-2-yl)-6-methylnicotinamide]",1 to 10 µM

# Same assay, conditions: Table 4; Pol theta (1-899) 5 nM, ATP, dT50 ssDNA
row,SMILES,IC50
1,"COc1cnc(Cl)cc1-c1cc(C)ncc1C(=O)Nc1nnc(OC(C)C)s1 [Example 6, 2′-chloro-N-(5-isopropoxy-1,3,4-thiadiazol-2-yl)-5′-methoxy-6-methyl-(4,4′-bipyridine)-3-carboxamide]",≤ 0.2 µM
2,"COc1nnc(NC(=O)c2cnc(C)cc2-c2cc(Cl)ncc2OC(F)F)s1 [Example 48, 2′-chloro-5′-(difluoromethoxy)-N-(5-methoxy-1,3,4-thiadiazol-2-yl)-6-methyl-(4,4′-bipyridine)-3-carboxamide]",≤ 0.2 µM
3,"COc1cnc(Cl)cc1-c1cc(C)ncc1C(=O)Nc1nnc(O)s1 [Example 31, 2′-chloro-N-(5-hydroxy-1,3,4-thiadiazol-2-yl)-5′-methoxy-6-methyl-(4,4′-bipyridine)-3-carboxamide]",0.2 to 0.5 µM

# Same assay, conditions: Table 5; Pol theta (1-899) 5 nM, ATP, dT50 ssDNA
row,SMILES,IC50
1,"Cc1cc(-c2cc(Cl)ncc2OC(F)F)c(C(=O)Nc2nnc(O[C@@H]3CCOC3)s2)cn1 [Example 82, (R)-2′-chloro-5′-(difluoromethoxy)-6-methyl-N-(5-((tetrahydrofuran-3-yl)oxy)-1,3,4-thiadiazol-2-yl)-(4,4′-bipyridine)-3-carboxamide]",≤ 0.2 µM
2,"COc1cnc(Cl)cc1-c1cc(C)ncc1C(=O)Nc1nnc(O[C@@H]2CCO[C@H]2C)s1 (single isomer, unassigned) [Example 116]",≤ 0.2 µM
3,COc1cnc(Br)cc1-c1cc(C)ncc1C(=O)Nc1nnc(O[C@@H]2CCOC2)s1 [Example 84],≤ 0.2 µM
4,"COc1cnc(Cl)cc1-c1cc(C)ncc1C(=O)Nc1nnc(O[C@H]2CCO[C@@H]2C)s1 (single isomer, unassigned) [Example 115]",≤ 0.2 µM

# Next, values leading:
row,IC50,SMILES
1,≤ 0.2 µM,"COc1cnc(Cl)cc1-c1cc(C)ncc1C(=O)Nc1nnc(O[C@@H]2COC(C)(C)C2)s1 (single isomer, unassigned) [Example 130]"
2,≤ 0.2 µM,"COc1cnc(Cl)cc1-c1cc(C)ncc1C(=O)Nc1nnc(O[C@@H]2CCC23COC3)s1 (single isomer, unassigned) [Example 137]"
3,≤ 0.2 µM,"COc1cnc(Cl)cc1-c1cc(C)ncc1C(=O)Nc1nnc(O[C@H]2CC[C@H](OC)C2)s1 (racemic) [Example 149, rac-2′-chloro-5′-methoxy-N-(5-(((1R,3R)-3-methoxycyclopentyl)oxy)-1,3,4-thiadiazol-2-yl)-6-methyl-(4,4′-bipyridine)-3-carboxamide]"
